Test system: rat oligodendrocyte progenitor cells
Assay: Promotive activity of rat oligodendrocyte progenitor cell differentiation-2 (immunostaining of MBP)
Type: cell-based
Conditions: vitamin D derivative 2 μM, T3 30 nM, 4 days
Procedure: The promotive activity of oligodendrocyte progenitor cell (OPC) differentiation of the vitamin D derivatives was evaluated by immunostaining of MBP.
Subsequently, oligodendrocyte progenitor cell separation medium was added to the flask, and the mixture was similarly shaken for about 22 hours (37° C., 200 rpm), and the supernatant was collected to prepare oligodendrocyte progenitor cells.

C=C1[C@H](O)CC(=C/C=C2\CCC[C@]3(C)[C@@H]([C@H](C)CN4CCCCC4(C)C)CC[C@@H]23)C[C@H]1O [Compound H003, (1R,3R)-5-(2-((1R,3aS,7aR,E)-1-((S)-1-(2,2-dimethylpiperidin-1-yl)propan-2-yl)-7a-methyloctahydro-4H-inden-4-ylidene)ethylidene)-2-methylenecyclohexane-1,3-diol]
Mean (number of MBP-positive cells/number of Hoechst33342-positive cells) (Test 9): 0.30

C=C1[C@H](O)CC(=C/C=C2\CCC[C@]3(C)[C@@H]([C@H](C)CN4CCN(C)C[C@@H]4C)CC[C@@H]23)C[C@H]1O [Compound H011, (1R,3R)-5-(2-((1R,3aS,7aR,E)-1-((S)-1-((S)-2,4-dimethylpiperazin-1-yl)propan-2-yl)-7a-methyloctahydro-4H-inden-4-ylidene)ethylidene)-2-methylenecyclohexane-1,3-diol]
Mean (number of MBP-positive cells/number of Hoechst33342-positive cells) (Test 5): 0.30

C=C1[C@H](O)CC(=C/C=C2\CCC[C@]3(C)[C@@H]([C@H](C)CN4CCN(C)C[C@H]4C)CC[C@@H]23)C[C@H]1O [Compound H012, (1R,3R)-5-(2-((1R,3aS,7aR,E)-1-((S)-1-((R)-2,4-dimethylpiperazin-1-yl)propan-2-yl)-7a-methyloctahydro-4H-inden-4-ylidene)ethylidene)-2-methylenecyclohexane-1,3-diol]
Mean (number of MBP-positive cells/number of Hoechst33342-positive cells) (Test 7): 0.28

C=C1[C@H](O)CC(=C/C=C2\CCC[C@]3(C)[C@@H]([C@H](C)CN4CCC[C@@H]4C(C)(C)O)CC[C@@H]23)C[C@H]1O [Compound H013, (1R,3R)-5-(2-((1R,3aS,7aR,E)-1-((S)-1-((R)-2-(2-hydroxypropan-2-yl)pyrrolidin-1-yl)propan-2-yl)-7a-methyloctahydro-4H-inden-4-ylidene)ethylidene)-2-methylenecyclohexane-1,3-diol]
Mean (number of MBP-positive cells/number of Hoechst33342-positive cells) (Test 8): 0.35

C=C1[C@H](O)CC(=C/C=C2\CCC[C@]3(C)[C@@H]([C@H](C)CN4CCC[C@H]4C(C)(C)O)CC[C@@H]23)C[C@H]1O [Compound H014, (1R,3R)-5-(2-((1R,3aS,7aR,E)-1-((S)-1-((S)-2-(2-hydroxypropan-2-yl)pyrrolidin-1-yl)propan-2-yl)-7a-methyloctahydro-4H-inden-4-ylidene)ethylidene)-2-methylenecyclohexane-1,3-diol]
Mean (number of MBP-positive cells/number of Hoechst33342-positive cells) (Test 8): 0.37

C=C1[C@H](O)CC(=C/C=C2\CCC[C@]3(C)[C@@H]([C@H](C)CN4CCC[C@@H]4C(C)(C)OC)CC[C@@H]23)C[C@H]1O [Compound H015, (1R,3R)-5-(2-((1R,3aS,7aR,E)-1-((S)-1-((R)-2-(2-methoxypropan-2-yl)pyrrolidin-1-yl)propan-2-yl)-7a-methyloctahydro-4H-inden-4-ylidene)ethylidene)-2-methylenecyclohexane-1,3-diol]
Mean (number of MBP-positive cells/number of Hoechst33342-positive cells) (Test 8): 0.34

C=C1[C@H](O)CC(=C/C=C2\CCC[C@]3(C)[C@@H]([C@H](C)CN4CCC[C@H]4C(C)(C)OC)CC[C@@H]23)C[C@H]1O [Compound H016, (1R,3R)-5-(2-((1R,3aS,7aR,E)-1-((S)-1-((S)-2-(2-methoxypropan-2-yl)pyrrolidin-1-yl)propan-2-yl)-7a-methyloctahydro-4H-inden-4-ylidene)ethylidene)-2-methylenecyclohexane-1,3-diol]
Mean (number of MBP-positive cells/number of Hoechst33342-positive cells) (Test 8): 0.30

C=C1/C(=C\C=C2/CCC[C@]3(C)[C@@H]([C@H](C)CN4CCCC[C@@H]4C)CC[C@@H]23)C[C@@H](O)C[C@H]1O [Compound I001, (1R,3R,Z)-5-(2-((1R,3aS,7aR,E)-7a-methyl-1-((S)-1-((S)-2-methylpiperidin-1-yl)propan-2-yl)octahydro-4H-inden-4-ylidene)ethylidene)-4-methylenecyclohexane-1,3-diol]
Mean (number of MBP-positive cells/number of Hoechst33342-positive cells) (Test 9): 0.30

— patent publication US20230348376A1 (TEIJIN PHARMA LIMITED, priority 2020, published 2023)
